Activity calls are given as the source filed them. The rule behind the calls is not given here.

The data set has as its system CCRIS mutagenicity, Ames/micronucleus/aberration tests. The data set is described as follows: CCRIS mutagenicity studies.
The mark [1] stands for this setting: Test System: AMES SALMONELLA TYPHIMURIUM, Strain/Indicator: TA98, Metabolic Activation: RAT, LIVER, S-9, AROCLOR 1254, Method: STANDARD PLATE.
The mark [2] stands for this setting: Test System: AMES SALMONELLA TYPHIMURIUM, Strain/Indicator: TA102, Metabolic Activation: RAT, LIVER, S-9, PHENOBARBITAL, Method: STANDARD PLATE.
The mark [3] stands for this setting: Test System: AMES SALMONELLA TYPHIMURIUM, Strain/Indicator: TA1535, Metabolic Activation: NONE, Method: STANDARD PLATE.
Where [4] appears, read: Test System: AMES SALMONELLA TYPHIMURIUM, Strain/Indicator: TA1535, Metabolic Activation: RAT, LIVER, S-9, PHENOBARBITAL, Method: STANDARD PLATE.
[5] abbreviates: Test System: AMES SALMONELLA TYPHIMURIUM, Strain/Indicator: TA1537, Metabolic Activation: NONE, Method: STANDARD PLATE.
The mark [6] stands for this setting: Test System: AMES SALMONELLA TYPHIMURIUM, Strain/Indicator: TA1537, Metabolic Activation: RAT, LIVER, S-9, PHENOBARBITAL, Method: STANDARD PLATE.
The mark [7] stands for this setting: Test System: AMES SALMONELLA TYPHIMURIUM, Strain/Indicator: TA98, Metabolic Activation: NONE, Method: STANDARD PLATE.

On to `O=C1[C@H]2CC=CC[C@H]2C(=O)N1SC(Cl)(Cl)Cl`, for which the mutagenic call was “active; positive” (Test System: AMES SALMONELLA TYPHIMURIUM, Strain/Indicator: G46, Metabolic Activation: MOUSE, LIVER, S-9, PHENOBARBITAL, Method: STANDARD PLATE); “active; positive” (Test System: AMES SALMONELLA TYPHIMURIUM, Strain/Indicator: TA97A, Metabolic Activation: NONE, Method: STANDARD PLATE); “inactive; negative” (Test System: AMES SALMONELLA TYPHIMURIUM, Strain/Indicator: TA97A, Metabolic Activation: RAT, LIVER, S-9, AROCLOR 1254, Method: STANDARD PLATE); “active; positive” (Test System: AMES SALMONELLA TYPHIMURIUM, Strain/Indicator: TA98, Metabolic Activation: NONE); “active; positive” (Test System: AMES SALMONELLA TYPHIMURIUM, Strain/Indicator: TA98, Metabolic Activation: RAT, LIVER, S-9, AROCLOR 1254); “active; positive” under setting [1]. Moreover, the mutagenic call reads like this: (Test System: AMES SALMONELLA TYPHIMURIUM, Strain/Indicator: TA100, Metabolic Activation: NONE) “active; positive”; (Test System: AMES SALMONELLA TYPHIMURIUM, Strain/Indicator: TA100, Metabolic Activation: NONE, Method: PREINCUBATION) “active; positive”; (Test System: AMES SALMONELLA TYPHIMURIUM, Strain/Indicator: TA100, Metabolic Activation: RAT, LIVER, S-9, AROCLOR 1254) “active; positive”; (Test System: AMES SALMONELLA TYPHIMURIUM, Strain/Indicator: TA100, Metabolic Activation: RAT, LIVER, S-9, Method: STANDARD PLATE) “active; positive”; (Test System: AMES SALMONELLA TYPHIMURIUM, Strain/Indicator: TA100, Metabolic Activation: S-9 MIX, Method: STANDARD PLATE) “active; positive”; (Test System: AMES SALMONELLA TYPHIMURIUM, Strain/Indicator: TA102, Metabolic Activation: NONE) “active; positive”. Further, the mutagenic call is, setting by setting: (Test System: AMES SALMONELLA TYPHIMURIUM, Strain/Indicator: TA102, Metabolic Activation: RAT, LIVER, S-9, AROCLOR 1254) “active; positive”; (Test System: AMES SALMONELLA TYPHIMURIUM, Strain/Indicator: TA102, Metabolic Activation: RAT, LIVER, S-9, AROCLOR 1254, Method: STANDARD PLATE) “inactive; negative”; under setting [2], “inactive; negative”; (Test System: AMES SALMONELLA TYPHIMURIUM, Strain/Indicator: TA104, Metabolic Activation: RAT, LIVER, S-9, AROCLOR 1254, Method: STANDARD PLATE) “inactive; negative”; (Test System: AMES SALMONELLA TYPHIMURIUM, Strain/Indicator: TA104, Metabolic Activation: RAT, LIVER, S-9, PHENOBARBITAL, Method: STANDARD PLATE) “active; positive”; (Test System: AMES SALMONELLA TYPHIMURIUM, Strain/Indicator: TA1535, Metabolic Activation: MOUSE, LIVER, S-9, PHENOBARBITAL, Method: STANDARD PLATE) “active; positive”. Besides, the mutagenic call is, setting by setting: (Test System: AMES SALMONELLA TYPHIMURIUM, Strain/Indicator: TA1535, Metabolic Activation: NONE) “active; positive”; under setting [3], “active; positive”; (Test System: AMES SALMONELLA TYPHIMURIUM, Strain/Indicator: TA1535, Metabolic Activation: RAT, LIVER, S-9, AROCLOR 1254) “active; positive”; under setting [4], “active; positive”; (Test System: AMES SALMONELLA TYPHIMURIUM, Strain/Indicator: TA1537, Metabolic Activation: NONE) “active; positive”; under setting [5], “active; positive”. The mutagenic call (Test System: AMES SALMONELLA TYPHIMURIUM, Strain/Indicator: TA1537, Metabolic Activation: RAT, LIVER, S-9, AROCLOR 1254) is “active; positive”; the mutagenic call under setting [6] is “active; positive”; the mutagenic call (Test System: AMES SALMONELLA TYPHIMURIUM, Strain/Indicator: TA1950, Metabolic Activation: NONE, Method: SPOT) was “active; positive”; the mutagenic call (Test System: Ames Salmonella typhimurium, Strain/Indicator: TA100, Metabolic Activation: None, Method: Preincubation) was “active; positive”; the mutagenic call (Test System: Ames Salmonella typhimurium, Strain/Indicator: TA1975P, Metabolic Activation: None, Method: Preincubation) was “active; positive (at higher doses)”; the mutagenic call (Test System: CHINESE HAMSTER OVARY, Strain/Indicator: CHO-K1-BH4 (HGPRT), Metabolic Activation: RAT, LIVER, S-9, AROCLOR, Method: SUSPENSION/PLATE) is “active; positive”. In addition, the mutagenic call reads like this: (Test System: CHINESE HAMSTER V-79, Strain/Indicator: V-79/8-AZAGUANINE, Metabolic Activation: NONE, Method: STANDARD PLATE) “active; positive”; (Test System: CHINESE HAMSTER V-79, Strain/Indicator: V-79/OUABAIN, Metabolic Activation: NONE, Method: STANDARD PLATE) “active; positive”; (Test System: E. COLI, Strain/Indicator: WP2, Metabolic Activation: NONE, Method: STANDARD PLATE) “active; positive”; (Test System: E. COLI, Strain/Indicator: WP2, Metabolic Activation: RAT, LIVER, S-9, Method: STANDARD PLATE) “active; positive”; (Test System: E. COLI, Strain/Indicator: WP2 UVRA, Metabolic Activation: NONE, Method: STANDARD PLATE) “active; positive”; (Test System: E. COLI, Strain/Indicator: WP2 UVRA, Metabolic Activation: RAT, LIVER, S-9, AROCLOR 1254, Method: STANDARD PLATE) “active; positive”.
`[Cr]`: the mutagenic call under setting [7] is “active; positive”; the mutagenic call (Test System: AMES SALMONELLA TYPHIMURIUM, Strain/Indicator: TA98, Metabolic Activation: RAT, LIVER, S-9, PHENOBARBITAL, Method: STANDARD PLATE) is “inactive; negative”; the mutagenic call (Test System: AMES SALMONELLA TYPHIMURIUM, Strain/Indicator: TA102, Metabolic Activation: NONE, Method: STANDARD PLATE) was “inactive; negative”; the mutagenic call under setting [2] is “inactive; negative”; the mutagenic call under setting [3] is “active; positive”; the mutagenic call under setting [4] was “inactive; negative”. The mutagenic call under setting [5] is “inactive; negative” and the mutagenic call under setting [6] was “inactive; negative”.
Regarding `Oc1ccc2c3ccccc3c3cc4ccccc4cc3c2c1O`, under “Test System: AMES SALMONELLA TYPHIMURIUM, Strain/Indicator: TA100, Metabolic Activation: RAT, LIVER, S-9, AROCLOR 1254, Method: PREINCUBATION”, the mutagenic call is “active; positive”.
`COc1c2c(cc3oc4c(CCC(C)(C)O)ccc(O)c4c(=O)c13)O[C@H]1OC=C[C@@H]21`: the mutagenic call by setting is: under setting [7], “active; positive”; under setting [1], “active; positive”; (Test System: AMES SALMONELLA TYPHIMURIUM, Strain/Indicator: TA100, Metabolic Activation: NONE, Method: STANDARD PLATE) “inactive; negative”; (Test System: AMES SALMONELLA TYPHIMURIUM, Strain/Indicator: TA100, Metabolic Activation: RAT, LIVER, S-9, AROCLOR 1254, Method: STANDARD PLATE) “active; positive”.
Take `COC(=O)C(Cl)Cl`: the mutagenic call is “active; positive (structural changes); precipitation of test chemical observed above 1.6” (End Point: IN VITRO CHROMOSOMAL ABERRATIONS, Test System: CHL CELLS, Metabolic Activation: NONE); “active; positive (structural changes); precipitation of test chemical observed above 2.0” (End Point: IN VITRO CHROMOSOMAL ABERRATIONS, Test System: CHL CELLS, Metabolic Activation: RAT, LIVER, S-9, SODIUM PHENOBARBITAL AND 5,6-BENZOFLAVONE); “active; positive” (Test System: AMES SALMONELLA TYPHIMURIUM, Strain/Indicator: TA102, Metabolic Activation: RAT, LIVER, S-9, PHENOBARBITAL AND 5,6-BENZOFLAVONE, Method: STANDARD PLATE); “active; positive” (Test System: AMES SALMONELLA TYPHIMURIUM, Strain/Indicator: TA2638, Metabolic Activation: RAT, LIVER, S-9, PHENOBARBITAL AND 5,6-BENZOFLAVONE, Method: STANDARD PLATE); “active; positive” (Test System: E. COLI, Strain/Indicator: WP2 (PKM101), Metabolic Activation: RAT, LIVER, S-9, PHENOBARBITAL AND 5,6-BENZOFLAVONE, Method: STANDARD PLATE); “active; positive” (Test System: E. COLI, Strain/Indicator: WP2 UVRA (PKM101), Metabolic Activation: RAT, LIVER, S-9, PHENOBARBITAL AND 5,6-BENZOFLAVONE, Method: STANDARD PLATE).

Values taken from PubChem BioAssay AID1259407 (Chemical Carcinogenesis Research Information System (CCRIS), 2018).
